Measured values: patent US5633229A, “Method of using prophenins-antibiotic peptides” (University of California, priority 1995, dated 1997)
Where no end group is shown, it is not given here.

Columns and labels:
E. coli ML-35 = experiment: radial diffusion assay in agarose gels, E. coli; type: cell-based; settings: for minimal microbicidal concentration: Target E. coli
Experimental: (§1) Aliquots (66 μl ) of each fraction were dried by vacuum centrifugation, and resuspended in approximately 6.6 μl of 0.01% acetic acid. Five μl samples of this concentrate were tested for antimicrobial activity against E. coli ML-35, L. monocytogenes, Strain EGD and C. albicans, strain 820 by radial diffusion and gel overlay techniques (Lehrer, R. I. et al. J Immunol Meth (1991) 137:167-173). Active fractions were further examined by acid-urea PAGE and SDS-PAGE. Prophenins emerged from the P10 column in fractions 38-43 (39.6 ml total volume), which contained a total of 18 mg protein BCA analysis.
(§2) The radial diffusion assay in agarose gels as described above was also used to test the activity of the purified prophenins. Samples of 5 μL each were added to 3 mm wells in thin gels composed of 10 mM sodium phosphate, 30 mg/ml trypticase soy broth powder in 1% agarose and containing approximately 4×10^5 CFU/ml of mid-log phase organisms. After allowing 3 hours for the samples to diffuse into the underlayer gel, a nutrient-rich overlay gel was poured and the plates were incubated for 24 hours at 37° C. to allow surviving organisms to form microcolonies. The diameters of the clear zones were measured and expressed in "units" (10 units=1 mm) as described previously.

[1] = tested on: L. monocytogenes, Strain EGD; experiment: radial diffusion assay in agarose gels, L. monocytogenes; type: cell-based; settings: Target L. monocytogenes
Experimental: as §1, §2

C. albicans, strain 820 = experiment: radial diffusion assay in agarose gels, C. albicans; type: cell-based; settings: for minimal microbicidal concentration: Target C. albicans; for inhibitory activity against C. albicans (FIG. 4c): result in words
Experimental: as §1, §2

[2] = tested on: lipid polysaccharide (LPS) of the Gram-negative bacterium E. coli strain 0.55B5; experiment: Limulus amebocyte lysate (LAL) test for endotoxin binding; type: biochemical; design: key to LPS-induced gel formation of E-TOXATE (Table 3): ++: a solid gel (no inhibition); +: increased viscosity without solid gel formation (partial inhibition); 0: gelation was absent (complete inhibition); settings: for LPS-induced gel formation of E-TOXATE (Table 3): 60 minutes at 37° C.
Experimental: The prophenins of the invention were tested for their ability to bind the lipid polysaccharide (LPS) of the Gram-negative bacterium E. coli strain 0.55B5. The assay was the Limulus amebocyte lysate (LAL) test for endotoxins conducted in the presence and absence of the test compounds. The test was conducted using the procedure described in Sigma Technical Bulletin No. 210 as revised in Dec. 1992 and published by Sigma Chemical Company, St. Louis, Mo.
The LAL test is based on the ability of LPS to effect gelation in the commercial reagent E-TOXATE™ which is prepared from the lysate of circulating amebocytes of the Horseshoe Crab Limulus polyphemus. As described in the technical bulletin, when exposed to minute quantities of LPS, the lysate increases in opacity as well as viscosity and may gel or clot depending on the concentration of endotoxin. The technical bulletin goes on to speculate that the mechanism appears analogous to the clotting of mammalian blood and involves the steps of activation of a trypsin-like preclotting enzymes by the LPS in the presence of calcium ion, followed by enzymic modifications of a "coagulogen" by proteolysis to produce a clottable protein. These steps are believed tied to the biologically active or "pyrogenic" portion of the molecule. It has been shown previously that detoxified LPS (or endotoxin) gives a negative LAL test.
In the assay, the amounts of prophenin-1 and polymyxin B (78% free polymyxin, Sigma) were preincubated in a final volume of 0.2 ml and the test mixtures contained LPS at a final concentration of 0.05 endotoxin unit/ml and E-TOXATE™ at the same concentration. The test compounds were incubated together with the LPS for 15 minutes before the E-TOXATE™ was added to a final volume (after E-TOXATE™ addition) of 0.2 ml. The tubes were then incubated for 60 minutes at 37° C. and examined for the formation of a gel.

Substance: PG-3: protegrin-3 (PG3), control (RGGGLCYCRRRFCVCVGR; ends and bridges not checked; cysteine pairing not given here; UniProt P32196 131-148, looked up)
- minimal microbicidal concentration (E. coli ML-35): 8.6 µg/mL
- inhibitory activity against E. coli ML-35 (FIG. 4a) (E. coli ML-35; result in words): more inhibitory than HNP-1
- minimal microbicidal concentration [1]: 9.0 µg/mL
- minimal microbicidal concentration (C. albicans, strain 820): 6.9 µg/mL
- inhibitory activity against C. albicans (FIG. 4c) (C. albicans, strain 820): successful antifungals

Substance: HNP-2: column head of Table 2; probably the human defensin control named HNP-1 in the text (CYCRIPACIAGERRYGTCIYQGRLWAFCC; ends and bridges not checked; cysteine pairing not given here; UniProt P59665 66-94, looked up)
- minimal microbicidal concentration (E. coli ML-35): 80.0 µg/mL
- minimal microbicidal concentration [1]: 12.0 µg/mL
- minimal microbicidal concentration (C. albicans, strain 820): > 150 µg/mL

Substance: HNP-1: human defensin (HNP-1), control
- inhibitory activity against C. albicans (FIG. 4c) (C. albicans, strain 820): substantially noninhibitory

Substance: Polymyxin B
- concentration giving complete inhibition of gelation ([2]; LAL test, LPS 0.05 endotoxin unit/ml): 5 µg/mL
- concentration giving complete inhibition of gelation, molar ([2]; LAL test, converted from μg/ml): ≈ 4.2 μM
- LPS-induced gel formation of E-TOXATE (Table 3) ([2]; peptide 0.16 μg/ml, LPS 0.05 endotoxin unit/ml): ++
- LPS-induced gel formation of E-TOXATE (Table 3) ([2]; peptide 0.31 μg/ml, LPS 0.05 endotoxin unit/ml): ++
- LPS-induced gel formation of E-TOXATE (Table 3) ([2]; peptide 0.63 μg/ml, LPS 0.05 endotoxin unit/ml): ++
- LPS-induced gel formation of E-TOXATE (Table 3) ([2]; peptide 1.25 μg/ml, LPS 0.05 endotoxin unit/ml): ++
- LPS-induced gel formation of E-TOXATE (Table 3) ([2]; peptide 2.5 μg/ml, LPS 0.05 endotoxin unit/ml): +
- LPS-induced gel formation of E-TOXATE (Table 3) ([2]; peptide 5.0 μg/ml, LPS 0.05 endotoxin unit/ml): 0
- LPS-induced gel formation of E-TOXATE (Table 3) ([2]; peptide 10.0 μg/ml, LPS 0.05 endotoxin unit/ml): 0
